Key:
Experiment in all cases: Preservative effectiveness test, single challenge
Type in all cases: cell-based
[1] = tested on: Aspergillus niger (ATCC #16404); conditions: Prev(e)nar 13 formulation, single challenge, 20 to 25° C.
Excerpt: (§1) To test for preservative effectiveness, aliquots of vaccine were inoculated with the following organisms:
(§2) Thirty milliliters (ml) of each vaccine formulation with and without Thimerosal or 2-PE at indicated concentrations or saline containing Thimerosal at 0.02% were inoculated in triplicates with a suspension of each test organism to achieve an inoculum density of approximately 10^5 to 10^6 CFU/ml at time 0 (CFU=colony forming units). […] Samples were mixed to ensure even distribution of challenged organisms. Another 30 ml of vaccine in triplicate (with and without preservative) were used as a negative control and spiked with the culture media alone to evaluate the inherent contamination that might be present in the sample or media. Each of the three series of vaccines, and positive and negative controls, was then separately incubated at 20 to 25° C. Aliquots (1 ml) of the challenged samples and controls (or their appropriate serial ten fold dilutions) were enumerated by plate count in duplicates at time 0 and at intervals of 6 hours, 24 hours, 7 days, 14 days and 28 days post-inoculation.
(§3) USP 29 NF 24 Supplement 2 (USP) requires that, after an inoculation of bacterial micro-organism(s), there is at least 1.0 log reduction from the initial calculated count (i.e., at time of inoculation) at 7 days, at least 3.0 log reduction at 14 days from the previous value measured and no increase at 28 days from the previous measured value. For yeast and fungi, the USP requirement is for there to be no increase from the time of inoculation to 7, 14 and 28 days.
(§4) EP requirements are more stringent. EP 5th Edition 5.6 (5.1.3) requirements for parenteral and ophthalmic preparations has two components: Category A and Category B. Category A (EP-A) requires, for bacteria, at least 2.0 log reduction from the initial calculated count at 6 hours after inoculation, at least 3.0 log reduction at 24 hours from the previous measured value, and no recovery at 28 days. Category B (EP-B) requires, for bacteria, at least 1.0 log reduction at 24 hours from the initial calculated count, at least 3.0 log reduction at 7 days from the previous value measured and not more than 0.5 log increase at 28 days from the previous value measured (i.e., no increase). For yeast and fungi, Category A requires at least 2.0 log reduction at 7 days and no increase from the previous value measured at 28 days, and Category B requires at least 1.0 log reduction at 14 days and no increase from the previous value measured at 28 days.
(§5) Plates containing <300 CFU for bacteria or <100 CFU for yeast or mold were used during enumeration. For single challenge studies, arithmetic average count of all surviving micro-organisms in triplicate and on duplicate plates (6 values per time point) plus their diluted samples were measured and normalized as CFU/ml. The results are expressed as mean log10 CFU/ml reduction (compared to time 0). In this case, the count of surviving micro-organisms is evaluated at time 0 as the baseline and compared to incubation time of 6 hours, 24 hours, 7 days, 14 days and 28 days.

[2] = tested on: Candida albicans (ATCC#10231); conditions: Prev(e)nar 13 formulation, single challenge, 20 to 25° C.
Excerpt: as §1, §2, §3, §4, §5

E. coli = conditions: Prev(e)nar 13 formulation, 20 to 25° C.
Excerpt: as §1, §2, §3, §4, §5

[3] = tested on: Pseudomonas aeruginosa (ATCC #9027); conditions: Prev(e)nar 13 formulation, 20 to 25° C.
Excerpt: as §1, §2, §3, §4, §5

[4] = tested on: Staphylococcus aureus (ATCC #6538); conditions: Prev(e)nar 13 formulation, single challenge, 20 to 25° C.
Excerpt: as §1, §2, §3, §4, §5

Structure (SMILES): Cc1cccc(O)c1 [0.3% m cresol, Meta-Cresol]
- EP (EP-B) vaccine safety requirements, A. niger [1]: Meets
- USP vaccine safety requirements, A. niger [1]: Meets
- EP (EP-B) vaccine safety requirements, C. albicans [2]: Meets
- USP vaccine safety requirements, C. albicans [2]: Meets
- EP (EP-B) vaccine safety requirements, E. coli (E. coli): Fails
- USP vaccine safety requirements, E. coli (E. coli): Meets
- EP (EP-B) vaccine safety requirements, P. aeruginosa [3]: Fails
- USP vaccine safety requirements, P. aeruginosa [3]: Meets
- EP (EP-B) vaccine safety requirements, S aureus [4]: Fails
- USP vaccine safety requirements, S aureus [4]: Meets

Structure (SMILES): Oc1ccccc1 [0.25% phenol, Phenol]
- EP (EP-B) vaccine safety requirements, A. niger [1]: Meets
- USP vaccine safety requirements, A. niger [1]: Meets
- EP (EP-B) vaccine safety requirements, C. albicans [2]: Meets
- USP vaccine safety requirements, C. albicans [2]: Meets
- EP (EP-B) vaccine safety requirements, E. coli (E. coli): Fails
- USP vaccine safety requirements, E. coli (E. coli): Meets
- EP (EP-B) vaccine safety requirements, P. aeruginosa [3]: Fails
- USP vaccine safety requirements, P. aeruginosa [3]: Meets
- EP (EP-B) vaccine safety requirements, S aureus [4]: Fails
- USP vaccine safety requirements, S aureus [4]: Meets

Reference: US9095567B2, “Vaccine formulations” (priority 2010, dated 2015)
